Results published in PubChem BioAssay AID192 (DTP/NCI, 2004).
Several values for one entry are separate records, joined by “and”; a condition that tells them apart may be missing. Equal values may be shown once. Inconclusive results and toxic doses are left out. Rule for the calls: active = survival T/C of 150% or more; inactive = T/C below 125% in these data.

Tested on: BDF1 mice, B16 melanoma ip, median survival T/C
Assay: NCI In Vivo Anticancer Drug Screen. Data for tumor model B16 Melanoma (intraperitoneal) in B6D2F1 (BDF1) mice
Details: endpoint: median survival time, higher = longer survival
Summary of the method: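 Compounds were tested in mice carrying transplantable tumors. Survival or tumor size was recorded, and each value is the treated-group measurement (T) divided by that of the vehicle-treated control group (C).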

[1] = dose: 100.0 mg/kg/injection, schedule: Q01DX009 (ip), vehicle: saline with Tween-80
[2] = dose: 200.0 mg/kg/injection, schedule: Q01DX009 (ip), vehicle: saline with Tween-80
[3] = dose: 12.5 mg/kg/injection, schedule: Q01DX009 (ip), vehicle: saline
[4] = dose: 50.0 mg/kg/injection, schedule: Q01DX009 (ip), vehicle: saline
[5] = dose: 100.0 mg/kg/injection, schedule: Q01DX009 (ip), vehicle: Klucel (hydroxypropylcellulose) (HPC)
[6] = dose: 25.0 mg/kg/injection, schedule: Q01DX009 (ip), vehicle: saline
[7] = dose: 100.0 mg/kg/injection, schedule: Q01DX009 (ip), vehicle: saline
[8] = dose: 50.0 mg/kg/injection, schedule: Q01DX009 (ip), vehicle: saline with Tween-80

Measured: T/C

C/C(CCC(=O)O)=N\NC(N)=O
inactive: [1] 88 % of control | [2] 88 % of control | dose: 400.0 mg/kg/injection, schedule: Q01DX009 (ip), vehicle: saline with Tween-80 100 % of control

[Cl][Pt+2][Cl].[NH-]C1CCCC1.[NH-]C1CCCC1
inactive: dose: 2.5 mg/kg/injection, schedule: Q01DX009 (ip), vehicle: Klucel (hydroxypropylcellulose) (HPC) 107 % of control | dose: 5.0 mg/kg/injection, schedule: Q01DX009 (ip), vehicle: Klucel (hydroxypropylcellulose) (HPC) 117 % of control | dose: 10.0 mg/kg/injection, schedule: Q01DX009 (ip), vehicle: Klucel (hydroxypropylcellulose) (HPC) 112 % of control | dose: 10.0 mg/kg/injection, schedule: Q01DX009 (ip), vehicle: olive oil, sesame oil, peanut oil 104 % of control | dose: 10.0 mg/kg/injection, schedule: Q01DX009 (ip), vehicle: saline with Tween-80 109 % of control | dose: 10.0 mg/kg/injection, schedule: Q01DX009 (ip), vehicle: saline 110 % of control | dose: 20.0 mg/kg/injection, schedule: Q01DX009 (ip), vehicle: saline with Tween-80 117 % of control | dose: 20.0 mg/kg/injection, schedule: Q01DX009 (ip), vehicle: saline 124 % of control | dose: 40.0 mg/kg/injection, schedule: Q01DX009 (ip), vehicle: saline with Tween-80 117 % of control | dose: 40.0 mg/kg/injection, schedule: Q04DX003 (ip), vehicle: Klucel (hydroxypropylcellulose) (HPC) 108 % of control | dose: 40.0 mg/kg/injection, schedule: Q04DX003 (ip), vehicle: saline 122 % of control | dose: 80.0 mg/kg/injection, schedule: Q01DX001 (ip), vehicle: Klucel (hydroxypropylcellulose) (HPC) 105 % of control | dose: 80.0 mg/kg/injection, schedule: Q01DX001 (ip), vehicle: saline 117 % of control | dose: 80.0 mg/kg/injection, schedule: Q01DX009 (ip), vehicle: Klucel (hydroxypropylcellulose) (HPC) 115 % of control | dose: 80.0 mg/kg/injection, schedule: Q01DX009 (ip), vehicle: saline with Tween-80 109 % of control | dose: 80.0 mg/kg/injection, schedule: Q04DX003 (ip), vehicle: Klucel (hydroxypropylcellulose) (HPC) 105 % of control | dose: 160.0 mg/kg/injection, schedule: Q01DX001 (ip), vehicle: Klucel (hydroxypropylcellulose) (HPC) 117 % of control | dose: 160.0 mg/kg/injection, schedule: Q01DX009 (ip), vehicle: saline 94 % of control | dose: 160.0 mg/kg/injection, schedule: Q04DX003 (ip), vehicle: Klucel (hydroxypropylcellulose) (HPC) 105 % of control | dose: 320.0 mg/kg/injection, schedule: Q01DX001 (ip), vehicle: Klucel (hydroxypropylcellulose) (HPC) 123 % of control | dose: 320.0 mg/kg/injection, schedule: Q04DX003 (ip), vehicle: Klucel (hydroxypropylcellulose) (HPC) 114 % of control | dose: 640.0 mg/kg/injection, schedule: Q04DX003 (ip), vehicle: saline 105 % of control

O=C(CCCN1CCC(O)(c2ccc(Cl)cc2)CC1)c1ccc(F)cc1
inactive: dose: 3.12 mg/kg/injection, schedule: Q01DX009 (ip), vehicle: saline 99 % of control | dose: 6.25 mg/kg/injection, schedule: Q01DX009 (ip), vehicle: saline 114 % of control | [3] 102 % of control | [4] 99 % of control

C=C1C(=O)O[C@@H]2C[C@@H](C)[C@@H]3C=CC(=O)[C@@]3(C)[C@@H](O)[C@H]12
inactive: dose: 2.0 mg/kg/injection, schedule: Q01DX009 (ip), vehicle: saline + alcohol 120 % of control | dose: 2.0 mg/kg/injection, schedule: Q01DX009 (ip), vehicle: saline 104 % of control | dose: 4.0 mg/kg/injection, schedule: Q01DX009 (ip), vehicle: saline + alcohol 115 % of control | dose: 4.0 mg/kg/injection, schedule: Q01DX009 (ip), vehicle: saline 95 % of control | dose: 8.0 mg/kg/injection, schedule: Q01DX009 (ip), vehicle: saline + alcohol 115 % of control | dose: 8.0 mg/kg/injection, schedule: Q01DX009 (ip), vehicle: saline 105 % of control

F[B-](F)(F)F
inactive: dose: 12.5 mg/kg/injection, schedule: Q01DX009 (ip), vehicle: gum acacia 104 % of control | dose: 25.0 mg/kg/injection, schedule: Q01DX009 (ip), vehicle: gum acacia 114 % of control | dose: 50.0 mg/kg/injection, schedule: Q01DX009 (ip), vehicle: gum acacia 117 % of control | dose: 100.0 mg/kg/injection, schedule: Q01DX009 (ip), vehicle: gum acacia 105 % of control | dose: 200.0 mg/kg/injection, schedule: Q01DX009 (ip), vehicle: gum acacia 107 % of control

Cc1ccc(NC(=O)Nc2cccc3ccccc23)c(C)c1
inactive: [5] 89 % of control | dose: 200.0 mg/kg/injection, schedule: Q01DX009 (ip), vehicle: Klucel (hydroxypropylcellulose) (HPC) 98 % of control

Cc1c[nH]c(=O)[nH]c1=O
inactive: dose: 32.0 mg/kg/injection, schedule: Q01DX009 (ip), vehicle: Klucel (hydroxypropylcellulose) (HPC) 97 % of control and 102 % of control | dose: 32.0 mg/kg/injection, schedule: Q01DX009 (ip), vehicle: saline with Tween-80 91 % of control | dose: 64.0 mg/kg/injection, schedule: Q01DX009 (ip), vehicle: Klucel (hydroxypropylcellulose) (HPC) 97 % of control | dose: 64.0 mg/kg/injection, schedule: Q01DX009 (ip), vehicle: saline with Tween-80 100 % of control | dose: 128.0 mg/kg/injection, schedule: Q01DX009 (ip), vehicle: Klucel (hydroxypropylcellulose) (HPC) 97 % of control and 103 % of control | dose: 256.0 mg/kg/injection, schedule: Q01DX009 (ip), vehicle: Klucel (hydroxypropylcellulose) (HPC) 100 % of control and 103 % of control | dose: 512.0 mg/kg/injection, schedule: Q01DX009 (ip), vehicle: Klucel (hydroxypropylcellulose) (HPC) 98 % of control and 103 % of control | dose: 512.0 mg/kg/injection, schedule: Q01DX009 (ip), vehicle: saline with Tween-80 107 % of control

CCCCCCCCC(=O)OCCNC(=O)C(C)OC(=O)CCCCCCCC (configuration not stated)
inactive: dose: 25.0 mg/kg/injection, schedule: Q01DX009 (ip), vehicle: Klucel (hydroxypropylcellulose) (HPC) 102 % of control | dose: 50.0 mg/kg/injection, schedule: Q01DX009 (ip), vehicle: Klucel (hydroxypropylcellulose) (HPC) 103 % of control | [5] 92 % of control

N[C@@H](Cc1ccc(O)c(O)c1)C(=O)O
inactive: [6] 109 % of control | [4] 98 % of control and 100 % of control | [7] 102 % of control and 104 % of control | dose: 200.0 mg/kg/injection, schedule: Q01DX009 (ip), vehicle: saline 102 % of control and 108 % of control | dose: 400.0 mg/kg/injection, schedule: Q01DX009 (ip), vehicle: saline 97 % of control and 104 % of control

CCOC(C)C(/C=N/NC(N)=S)=NNC(N)=S (configuration not stated)
inactive: [8] 90 % of control

CCC(=O)NC(CC(C)C)C(=O)NC(CC(C)C)C(=O)NC(C=O)CCCN=C(N)N (configuration not stated) (tested in a mixture with another compound)
inactive: [3] 100 % of control and 105 % of control | [6] 94 % of control and 105 % of control | [4] 99 % of control and 105 % of control | [7] 108 % of control and 120 % of control

CS(=O)(=O)c1cc([N+](=O)[O-])cc([N+](=O)[O-])c1Cl
inactive: dose: 0.1 mg/kg/injection, schedule: Q01DX009 (ip), vehicle: saline 93 % of control | dose: 0.2 mg/kg/injection, schedule: Q01DX009 (ip), vehicle: saline 93 % of control | dose: 0.4 mg/kg/injection, schedule: Q01DX009 (ip), vehicle: saline 100 % of control | dose: 0.8 mg/kg/injection, schedule: Q01DX009 (ip), vehicle: saline 95 % of control | dose: 1.25 mg/kg/injection, schedule: Q01DX009 (ip), vehicle: saline with Tween-80 91 % of control | dose: 2.5 mg/kg/injection, schedule: Q01DX009 (ip), vehicle: saline with Tween-80 86 % of control

O=S(=O)(OCC(COS(=O)(=O)c1ccccc1)(COS(=O)(=O)c1ccccc1)COS(=O)(=O)c1ccccc1)c1ccccc1
inactive: [8] 110 % of control | [1] 97 % of control | [2] 110 % of control
